Experiments:
[1] = molecular target: human A2a receptor (Homo sapiens, UniProt P29274); assay: Adenosine antagonistic activity, radioligand binding ([3H]CGS 21680); conditions: [3H]CGS 21680 20 nM
Method: (§1) Test 1: Adenosine Antagonistic Activity
(§2) The adenosine antagonistic activity [Ki (nM)] of the test compound was examined by radioligand binding techniques using 8-cyclopentyl-1,3-dipropylxanthine, [dipropyl-2,3-^3H(N)] ([^3H]DPCPX, 4.5 nM) for human A1 receptor and [^3H]CGS 21680 (20 nM) for human A2a receptor.

[2] = molecular target: T1, human A1 receptor (Homo sapiens, UniProt P30542); assay: Adenosine antagonistic activity, radioligand binding ([3H]DPCPX); conditions: [3H]DPCPX 4.5 nM
T1 sequence (P30542 1-326): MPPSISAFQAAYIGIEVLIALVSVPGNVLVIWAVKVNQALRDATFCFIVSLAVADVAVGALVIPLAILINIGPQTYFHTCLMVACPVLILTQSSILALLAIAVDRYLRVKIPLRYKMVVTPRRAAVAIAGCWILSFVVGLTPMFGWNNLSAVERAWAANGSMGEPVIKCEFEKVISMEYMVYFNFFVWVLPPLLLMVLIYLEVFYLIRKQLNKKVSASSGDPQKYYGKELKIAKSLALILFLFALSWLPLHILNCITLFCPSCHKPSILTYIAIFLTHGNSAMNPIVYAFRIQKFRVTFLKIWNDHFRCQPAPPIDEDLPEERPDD
Method: as §1, §2

[3] = tested on: ddY mice; assay: Anticatalepsy activity in mouse (haloperidol-induced catalepsy, bar test); format: in vivo; conditions: 3.2 mg/kg orally, ddY mice n=7; haloperidol 0.32 mg/kg i.p. 30 min after compound; measured 30 min after injection, up to 30 sec
Method: Test 2: Anticatalepsy Activity in Mouse [I] Test Method
The test compound (3.2 mg/kg) was administered orally with ddY mice (n=7). Then, haloperidol (0.32 mg/kg) was injected intraperitoneally 30 min. after the administration of the compound. Thirty min. after the injection, the cataleptic responses of mice were measured. The forelimbs of each mouse were placed on a 3 cm high, 3 mm wide horizontal bar, and the duration of cataleptic posture was measured for up to 30 sec.

Sequence of human A2a receptor (P29274 whole entry): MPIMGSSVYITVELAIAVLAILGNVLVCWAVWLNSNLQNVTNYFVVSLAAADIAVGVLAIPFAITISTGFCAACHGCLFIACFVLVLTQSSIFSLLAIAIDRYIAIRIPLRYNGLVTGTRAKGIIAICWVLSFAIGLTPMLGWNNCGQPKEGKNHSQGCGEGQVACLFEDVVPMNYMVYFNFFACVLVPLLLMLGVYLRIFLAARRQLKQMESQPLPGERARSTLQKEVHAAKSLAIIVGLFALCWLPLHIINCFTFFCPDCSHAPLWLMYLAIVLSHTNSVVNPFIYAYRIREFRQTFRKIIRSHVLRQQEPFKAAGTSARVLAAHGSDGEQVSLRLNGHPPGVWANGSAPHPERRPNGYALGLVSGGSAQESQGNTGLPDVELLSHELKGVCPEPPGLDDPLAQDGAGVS

SMILES | Ki [1] | Ki [2] | Manifestation rate of Catalepsy (number of mouse) [3] | melting point
CC(C)n1nc(-c2nc(C#Cc3ccccc3)c(N)nc2-c2ccccc2)ccc1=O [Example 70, 6-[5-amino-3-phenyl-6-(phenylethynyl)-2-pyrazinyl]-2-isopropyl-3(2H)-pyridazinone] | 0.29 nM | 0.88 nM | 0/7 | 239 to 241 °C
CC(C)n1nc(-c2nc(C#Cc3cncn3C)c(N)nc2-c2ccccc2)ccc1=O [Example 75, 6-{5-amino-6-[(1-methyl-1H-imidazol-5-yl)ethynyl]-3-phenyl-2-pyrazinyl}-2-isopropyl-3(2H)-pyridazinone] | 0.25 nM | 0.72 nM | 0/7 | > 250 °C
CC(C)n1nc(-c2nc(NCc3ccco3)c(N)nc2-c2ccccc2)ccc1=O [Example 134, 6-{5-amino-6-[(2-furylmethyl)amino]-3-phenyl-2-pyrazinyl}-2-isopropyl-3(2H)-pyridazinone] | 2.6 nM | 6.66 nM | 1/7 | 206.5 to 209 °C
Cn1nc(-c2nc(-n3cccn3)c(N)nc2-c2ccccc2)ccc1=O [Example 153, 6-[5-amino-3-phenyl-6-(1H-pyrazol-1-yl)-2-pyrazinyl]-2-methyl-3(2H)-pyridazinone] | 4.95 nM | 18.9 nM | 2/7 | 187 to 189.5 °C
CC(C)n1nc(-c2nc(OCc3ccccn3)c(N)nc2-c2ccccc2)ccc1=O [Example 163, 6-[5-amino-3-phenyl-6-(2-pyridylmethoxy)-2-pyrazinyl]-2-isopropyl-3(2H)-pyridazinone] | 0.42 nM | 1.35 nM | 2/7 | 150 to 151 °C
CCCCOc1nc(-c2ccc(=O)n(C)n2)c(-c2ccccc2)nc1N [Example 179, 6-(5-amino-6-butoxy-3-phenyl-2-pyrazinyl)-2-methyl-3(2H)-pyridazinone] | 1.57 nM | 16.4 nM | 1/7 | 143 to 144 °C
Cn1nc(-c2nc(OCc3ccco3)c(N)nc2-c2ccccc2)ccc1=O [Example 184, 6-[5-amino-6-(2-furylmethoxy)-3-phenyl-2-pyrazinyl]-2-methyl-3(2H)-pyridazinone] | 1.49 nM | 13.2 nM | 2/7 | 158 to 159.5 °C

From patent US7265120B2, “Pyrazine derivatives and pharmaceutical use thereof” (Astellas Pharma Inc., priority 2004, dated 2007)
